Data as given in ChEMBL document CHEMBL1201862, “PubChem BioAssay data set” (2004).
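Test compounds were applied to cells in 96-well plates for 48 hours at 5 doses. At the GI50, growth is halved.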 Activity calls are given as the source filed them. Cut-off read from the data, not from the text of the source: active = GI50 up to about 1.1 µM and inactive = higher.

What was measured:
Test in all cases: NCI tumour cell line growth inhibition, 48 h
[1] = tested on: A498
[2] = tested on: A549
[3] = tested on: ACHN
[4] = tested on: HL-60
[5] = tested on: HT-29
[6] = tested on: IGROV-1
[7] = tested on: K562
[8] = tested on: LOX IMVI
[9] = tested on: MDA-MB-435
[10] = tested on: Malme-3M
[11] = tested on: NCI-H226
[12] = tested on: NCI-H522
[13] = tested on: PC-3
[14] = tested on: SF-539
[15] = tested on: SK-MEL-28
[16] = tested on: SK-MEL-2
[17] = tested on: SN12C
[18] = tested on: SW-620
[19] = tested on: TK-10
[20] = tested on: UACC-62

SMILES	GI50 [1]	GI50 [2]	GI50 [3]	GI50 [4]	GI50 [5]	GI50 [6]	GI50 [7]	GI50 [8]	GI50 [9]	GI50 [10]	GI50 [11]	GI50 [12]	GI50 [13]	GI50 [14]	GI50 [15]	GI50 [16]	GI50 [17]	GI50 [18]	GI50 [19]	GI50 [20]
CC(=O)Oc1ccc(-c2nnc(-c3ccc(OC(C)=O)cc3)nn2)cc1	> 100 µM (inactive)	> 100 µM (inactive)	59 µM (inactive)	29.8 µM (inactive)	> 100 µM (inactive)	> 100 µM (inactive)	55.5 µM (inactive)	> 100 µM (inactive)	> 100 µM (inactive)	> 100 µM (inactive)	> 100 µM (inactive)	> 100 µM (inactive)	> 100 µM (inactive)	> 100 µM (inactive)	> 100 µM (inactive)	> 100 µM (inactive)	> 100 µM (inactive)	> 100 µM (inactive)	> 100 µM (inactive)	> 100 µM (inactive)
CCN(CC)C1Oc2cc3c(cc2C(c2cc(OC)c(OC)c(OC)c2)C1C)OCO3 (centres undefined)	1.59 µM (inactive)	1.55 µM (inactive)	2.14 µM (inactive)	0.242 µM (active)	0.603 µM (active)	1.52 µM (inactive)	0.308 µM (active)	0.762 µM (active)	0.113 µM (active)	0.748 µM (active)	0.875 µM (active)	0.344 µM (active)	0.979 µM (active)	0.457 µM (active)	0.719 µM (active)	0.887 µM (active)	1.52 µM (inactive)	0.531 µM (active)	26.5 µM (inactive)	1.06 µM (active)
COCCNC1CCC2(SCCS2)c2[nH]c3ccccc3c21 (centres undefined)	25.5 µM (inactive)	> 100 µM (inactive)	61.9 µM (inactive)	18.9 µM (inactive)	> 100 µM (inactive)	> 100 µM (inactive)	32.2 µM (inactive)	16.5 µM (inactive)	22.4 µM (inactive)	> 10 µM (inactive)	40.3 µM (inactive)	30.8 µM (inactive)	28.6 µM (inactive)	23.6 µM (inactive)	26.3 µM (inactive)	44.8 µM (inactive)	28.4 µM (inactive)	68.7 µM (inactive)	22.5 µM (inactive)	–
Cc1cccc(C)c1/N=N/c1ccc(O)c(CN(C)C)c1	35.6 µM (inactive)	65.9 µM (inactive)	36.2 µM (inactive)	26.9 µM (inactive)	22.7 µM (inactive)	26.3 µM (inactive)	28.6 µM (inactive)	36.5 µM (inactive)	41.8 µM (inactive)	20.5 µM (inactive)	87.9 µM (inactive)	42.6 µM (inactive)	62.8 µM (inactive)	79.4 µM (inactive)	20.7 µM (inactive)	25.2 µM (inactive)	> 100 µM (inactive)	91.2 µM (inactive)	59.6 µM (inactive)	26.7 µM (inactive)
CC1CC[C@@]2(OC1)OC1C[C@H]3[C@@H]4CC=C5CC(OC6OC(CO)C(OC7OC(CO)C(O)C(OC8OCC(O)C(O)C8O)C7OC7OC(CO)C(OC8OC(C)C(OC9OC(C)C(O)C(O)C9O)C(O)C8O)C(O)C7O)C(O)C6O)CCC5(C)[C@H]4CCC3(C)C1[C@@H]2C (some centres undefined)	2.02 µM (inactive)	7.48 µM (inactive)	2.5 µM (inactive)	8.99 µM (inactive)	8.17 µM (inactive)	8.49 µM (inactive)	8.05 µM (inactive)	8.99 µM (inactive)	9.06 µM (inactive)	10.6 µM (inactive)	9.08 µM (inactive)	8.87 µM (inactive)	5.32 µM (inactive)	6.08 µM (inactive)	11.2 µM (inactive)	6.71 µM (inactive)	9.35 µM (inactive)	11.4 µM (inactive)	8.59 µM (inactive)	9.71 µM (inactive)
CC(=O)Oc1c(-c2ccccc2)oc2ccccc12	2.96 µM (inactive)	1.51 µM (inactive)	1.79 µM (inactive)	1.12 µM (inactive)	2.5 µM (inactive)	2.08 µM (inactive)	2.06 µM (inactive)	0.398 µM (active)	2.43 µM (inactive)	2.83 µM (inactive)	2.07 µM (inactive)	2.3 µM (inactive)	1.53 µM (inactive)	1.36 µM (inactive)	2.38 µM (inactive)	1.8 µM (inactive)	2.19 µM (inactive)	3.1 µM (inactive)	3.73 µM (inactive)	3.13 µM (inactive)
CC1(C)CCCC(C)(C2CCC3(C)C2C(O)CC2C4(C)CCC(O)C(C)(C)C4CCC23C)O1 (centres undefined)	> 100 µM (inactive)	> 100 µM (inactive)	56.9 µM (inactive)	26.4 µM (inactive)	78.9 µM (inactive)	> 100 µM (inactive)	91.8 µM (inactive)	> 100 µM (inactive)	> 100 µM (inactive)	98.6 µM (inactive)	> 100 µM (inactive)	75.5 µM (inactive)	> 100 µM (inactive)	42.9 µM (inactive)	> 100 µM (inactive)	> 100 µM (inactive)	> 100 µM (inactive)	> 100 µM (inactive)	86.5 µM (inactive)	> 100 µM (inactive)
